pKi: −log10 of the molar value. Like-named read-outs stand apart in the source and are kept apart here.
How the values were obtained:
[1] = tested on: RAN translation of (G4C2)66-No ATG-GFP in HEK293T cells; assay: Cell-based assay of RAN translation inhibition (GFP/mCherry reporter); details: Homo sapiens, HEK-293T, 24 h, read-out: RANT IC25
[2] = target: biotinylated r(G4C2)8 RNA and hnRNP H1-His6; assay: TR-FRET hnRNP H binding assay
Method: TR-FRET hnRNP H Binding Assay. The TR-FRET assays were performed as previously described (Disney et al., 2012) except the final concentrations of biotinylated r(G4C2)8 (SEQ ID NO: 2) RNA and hnRNP H1-His6 were 80 nM and 75 nM, respectively. The RNA was folded by heating to 95° C. for 5 min in 1× Folding Buffer followed by slowly cooling to room temperature. The buffer was adjusted to 1×TR-FRET Assay Buffer followed by addition of compound. The mixture was incubated for 15 min at room temperature and then hnRNP H1-His6 was added. After an additional 15 min incubation, streptavidin-XL665 (HTRF, Cisbio Bioassays) and anti-His6-Tb (HTRF, Cisbio Bioassays) were added to a final concentration of 40 nM and 0.44 ng/μL, respectively. After incubating for 1 h, TR-FRET was measured as previously described. The IC50s were either calculated by fitting the equation (1) in Graphpad Prism.

[3] = Table F, HEK293T, 24 h treatment
[4] = Table D, HEK293T, 24 h treatment

Structure (SMILES) | pKi ([2]; Table F) | pKi ([2]; Table D) | IC25 [1, 4] | further results
Cc1c2ccncc2cc2c1[nH]c1ccc(OCCN3CCOCC3)cc12 [Compound 250, 4-(2-((5-methyl-6H-pyrido[4,3-b]carbazol-9-yl)oxy)ethyl)morpholine] | 4.96 |  |  | IC25 [1, 3]: > 5 µM
Cc1c2ccncc2cc2c3cc(OCC4=NCCN4)ccc3n(CCC(C)C)c12 [Compound 249, 9-(4,5-dihydro-1H-imidazol-2-ylmethoxy)-6-isopentyl-5-methyl-pyrido[4,3-b]carbazole] | 4.66 |  |  | IC25 [1, 3]: > 5 µM
Cc1c2ccncc2cc2c3cc(OCCN4CCCCC4)ccc3n(C)c12 [Example 31, 5,6-dimethyl-9-(2-(piperidin-1-yl)ethoxy)-6H-pyrido[4,3-b]carbazole] |  | 5.35 |  | IC25 [1]: 2.8 µM
Cc1c2ccnc(C(=O)N[C@H](C)CN(C)C)c2cc2c3cccc(OCCCN4CCN(C)CC4)c3n(C)c12 [Compound 253, (R)—N-(1-(dimethylamino)propan-2-yl)-5,6-dimethyl-7-(3-(4-methylpiperazin-1-yl)propoxy)-6H-pyrido[4,3-b]carbazole-1-carboxamide] | 4.85 |  |  | IC25 [1, 3]: > 5 µM
Cc1c2ccncc2cc2c3cc(OCC4=NCCN4)ccc3n(CC(C)(C)C)c12 [Compound 252, 9-((4,5-dihydro-1H-imidazol-2-yl)methoxy)-5-methyl-6-neopentyl-6H-pyrido[4,3-b]carbazole] | < 3.70 |  |  | IC25 [1, 3]: > 5 µM
Cc1c2ccnc(C(=O)N[C@H](C)CN(C)C)c2cc2c3cc(OCCCN4CCN(C)CC4)ccc3n(C)c12 [Example 26, (R)—N-(1-(dimethylamino)propan-2-yl)-5,6-dimethyl-9-(3-(4-methylpiperazin-1-yl)propoxy)-6H-pyrido[4,3-b]carbazole-1-carboxamide] |  | 5.23 | 0.57 µM | 
COCCNC(=O)c1ccc2c(c1)c1cc3cnccc3c(C)c1n2C [Compound 215, N-(2-methoxyethyl)-5,6-dimethyl-6H-pyrido[4,3-b]carbazole-9-carboxamide] | 4.92 |  |  | IC25 [1, 3]: > 5 µM
Cc1c2ccncc2cc2c3cc(OCCCN4CCN(C)CC4)ccc3n(C)c12 [Compound 23, 5,6-dimethyl-9-(3-(4-methylpiperazin-1-yl)propoxy)-6H-pyrido[4,3-b]carbazole] |  | 5.03 | > 5 µM | 
CC(C)n1c2ccc(OCC3=NCCN3)cc2c2cc3cnccc3cc21 [Compound 256, 9-(4,5-dihydro-1H-imidazol-2-ylmethoxy)-6-isopropyl-pyrido[4,3-b]carbazole] | 4.38 |  |  | IC25 [1, 3]: > 5 µM
Cc1c2ccncc2cc2c3cc(OCCN4CCOCC4)ccc3n(CC(C)(C)C)c12 [Compound 247, 4-(2-((5-methyl-6-neopentyl-6H-pyrido[4,3-b]carbazol-9-yl)oxy)ethyl)morpholine] | < 3.70 |  |  | IC25 [1, 3]: > 5 µM
Cc1c2ccncc2cc2c3cc(N4CCNCC4)ccc3n(C)c12 [Compound 244, 5,6-dimethyl-9-(piperazin-1-yl)-6H-pyrido[4,3-b]carbazole] | 6.40 |  |  | IC25 [1, 3]: 2.4 µM
Cc1c2ccncc2cc2c1sc1ccc(OCCN(C)C)cc12 [Compound 224, N,N-dimethyl-2-((5-methylbenzo[4,5]thieno[2,3-g]isoquinolin-9-yl)oxy)ethanamine] | 5.07 |  |  | IC25 [1]: > 5 µM
Cc1c2ccnc(C3CCCO3)c2cc2c3cc(C(=O)NCCN(C)C)ccc3n(C)c12 (stereo not shown) [Compound 216, N-(2-(dimethylamino)ethyl)-5,6-dimethyl-1-(tetrahydrofuran-2-yl)-6H-pyrido[4,3-b]carbazole-9-carboxamide] | 5.16 |  |  | IC25 [1, 3]: 1.7 µM
Cc1c2ccncc2cc2c1oc1ccc(OCCN(C)C)cc12 [Compound 236, N,N-dimethyl-2-((5-methylbenzofuro[2,3-g]isoquinolin-9-yl)oxy)ethanamine] | 4.85 |  |  | IC25 [1]: > 5 µM
Cc1c2ccncc2cc2c3cc(OCCN4CCC(F)CC4)ccc3n(C)c12 [Compound 229, 9-(2-(4-fluoropiperidin-1-yl)ethoxy)-5,6-dimethyl-6H-pyrido[4,3-b]carbazole] | 5.38 |  |  | IC25 [1]: 2.2 µM
Cc1c2ccncc2cc2c3cc(OCCN4CCOCC4)ccc3n(CCC(C)C)c12 [Compound 248, 4-(2-((6-isopentyl-5-methyl-6H-pyrido[4,3-b]carbazol-9-yl)oxy)ethyl)morpholine] | < 3.70 |  |  | IC25 [1]: > 5 µM
CN(C)CCOc1ccc2c(c1)c1cc3cnccc3cc1n2C [Compound 237, N,N-dimethyl-2-((6-methyl-6H-pyrido[4,3-b]carbazol-9-yl)oxy)ethanamine] | 5.44 |  |  | IC25 [1]: 2 µM
Cc1c2ccnc(C(=O)N[C@H](C)CN(C)C)c2cc2c3c(OCCCN4CCN(C)CC4)cccc3n(C)c12 [Compound 241, (R)—N-(1-(dimethylamino)propan-2-yl)-5,6-dimethyl-10-(3-(4-methylpiperazin-1-yl)propoxy)-6H-pyrido[4,3-b]carbazole-1-carboxamide] | 5.74 |  |  | 
Cc1c2ccncc2cc2c1oc1ccc(OCC3=NCCN3)cc12 [Compound 233, 9-((4,5-dihydro-1H-imidazol-2-yl)methoxy)-5-methylbenzofuro[2,3-g]isoquinoline] | 5.12 |  |  | 
Cn1c2ccc(OCCN3CCOCC3)cc2c2cc3ncccc3cc21 [Compound 225, 4-(2-((6-methyl-6H-pyrido[3,2-b]carbazol-9-yl)oxy)ethyl)morpholine] | < 3.70 |  |  | 
Cc1c2ccncc2cc2c3cc(O)ccc3n(C)c12 [Compound 2, 5,6-dimethyl-6H-pyrido[4,3-b]carbazol-9-ol] |  | < 3.70 |  | 
COc1cccc2c3cc4c(C(=O)N[C@H](C)CN(C)C)nccc4c(C)c3n(C)c12 [Compound 240, (R)—N-(1-(dimethylamino)propan-2-yl)-7-methoxy-5,6-dimethyl-6H-pyrido[4,3-b]carbazole-1-carboxamide] | 4.70 |  |  | 
COc1ccc2c(c1)c1cc3cnccc3c(C)c1n2CCN(C)C [Compound 20, 2-(9-methoxy-5-methyl-6H-pyrido[4,3-b]carbazol-6-yl)-N,N-dimethylethan-1-amine] |  | < 3.70 |  | 

Second part, led by results:

pKi ([2]; Table F) | pKi ([2]; Table D) | Structure (SMILES) | IC25 [1, 4] | further results
 | 5.44 | Cc1c2ccncc2cc2c3cc(C(=O)NCCO)ccc3n(C)c12 [Example 78, N-(2-hydroxyethyl)-5,6-dimethyl-6H-pyrido[4,3-b]carbazole-9-carboxamide] | 1.6 µM | 
 | 4.52 | CCc1nccc2c(C)c3c(cc12)c1cc(OC)ccc1n3C [Example 80a, 1-ethyl-9-methoxy-5,6-dimethyl-6H-pyrido[4,3-b]carbazole] | > 5 µM | 
 | 4.44 | CNC(=O)c1ccc2c(c1)c1cc3cnccc3c(C)c1n2C [Example 70, N,5,6-trimethyl-6H-pyrido[4,3-b]carbazole-9-carboxamide] | 3.6 µM | 
 | 4.48 | COc1ccc2c(c1)c1cc3ccncc3c(C)c1n2C [Example 50, 7-methoxy-10,11-dimethyl-10H-pyrido[3,4-b]carbazole] | 0.27 µM | 
 | 5.41 | Cc1c2ccncc2cc2c3cc(OC[C@H]4CCCN4C)ccc3n(C)c12 [Example 36, (R)-5,6-dimethyl-9-((1-methylpyrrolidin-2-yl)methoxy)-6H-pyrido[4,3-b]carbazole] | > 5 µM | 
 | 4.89 | Cc1c2ccncc2cc2c3c(OCCN4CCOCC4)cccc3n(C)c12 [Example 54, 4-(2-((5,6-dimethyl-6H-pyrido[4,3-b]carbazol-10-yl)oxy)ethyl)morpholine] | 1.3 µM | 
 | 5.04 | Cc1c2ccncc2cc2c3cc(OCC(=O)NCCN4CCOCC4)ccc3n(C)c12 [Example 42, 2-((5,6-dimethyl-6H-pyrido[4,3-b]carbazol-9-yl)oxy)-N-(2-morpholinoethyl)acetamide] | > 5 µM | 
 | 5.74 | CCn1c2ccc(OCC3=NCCN3)cc2c2cc3cnccc3c(C)c21 [Example 63, 9-((4,5-dihydro-1H-imidazol-2-yl)methoxy)-6-ethyl-5-methyl-6H-pyrido[4,3-b]carbazole] | 4.8 µM | 
 | 5.04 | COc1ccc2c(c1)c1cc3c(C4CCCO4)nccc3c(C)c1n2C (stereo not shown) [Example 80b, 9-methoxy-5,6-dimethyl-1-(tetrahydrofuran-2-yl)-6H-pyrido[4,3-b]carbazole] | 3.1 µM | 
 | 6.08 | Cc1c2ccncc2cc2c3cc(OC[C@@H]4CCCN4C)ccc3n(C)c12 [Example 37, (S)-5,6-dimethyl-9-((1-methylpyrrolidin-2-yl)methoxy)-6H-pyrido[4,3-b]carbazole] | 2.3 µM | 
 | < 3.70 | Cc1c2ccncc2cc2c3cc(OCCN4CCC(F)(F)CC4)ccc3n(C)c12 [Example 40, 9-(2-(4,4-difluoropiperidin-1-yl)ethoxy)-5,6-dimethyl-6H-pyrido[4,3-b]carbazole] |  | 
 | 5.34 | Cn1c2ccc(OCCN3CCOCC3)cc2c2cc3cnccc3cc21 [Example 46, 4-[2-(6-methylpyrido[4,3-b]carbazol-9-yl)oxyethyl]morpholine] |  | 
 | < 3.70 | COc1ccc2oc3c(C)c4ccncc4cc3c2c1 [Example 66, 9-methoxy-5-methyl-benzofuro[2,3-g]isoquinoline] |  | 
 | < 3.70 | COc1ccc2[nH]c3c(C)c4ccncc4c(O)c3c2c1 [Example 48, 9-methoxy-5-methyl-6H-pyrido[4,3-b]carbazol-11-ol] |  | 
